Assays:
[1] = molecular target: T1, human EP4 (EP4R) (Homo sapiens, UniProt P35408); test: EP4 antagonist assay (HEK-293 CNG membrane potential cAMP assay / 293T SEAP reporter assay, PGE2-stimulated); type: cell-based; details: EP4 antagonist activity; concentration for inhibition of signal compared to DMSO
T1 construct: Cayman Chemical (Human EP4 Reporter Assay Kit)

[2] = molecular target: T2, human EP2 (PTGER2) (Homo sapiens, UniProt P43116); test: EP2 antagonist assay (HEK-293 CNG membrane potential cAMP assay / 293T SEAP reporter assay, PGE2-stimulated); type: cell-based; details: EP2 antagonist activity; concentration for 50% inhibition of signal compared to DMSO
T2 construct: Cayman Chemical (Human EP2 Reporter Assay Kit)
In short: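 HEK-293 CNG cells expressing human EP2: compound preincubated 15 min at RT, then PGE2 at 5 nM final, 30 min; membrane-potential dye fluorescence (ex 530, em 590 nm), background-subtracted, gave IC50. Alternatively, 293T cells reverse-transfected with EP2 and CRE-SEAP, compound plus 13 nM PGE2 for 6-8 h, SEAP luminescence.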

T1 sequence (P35408 whole entry): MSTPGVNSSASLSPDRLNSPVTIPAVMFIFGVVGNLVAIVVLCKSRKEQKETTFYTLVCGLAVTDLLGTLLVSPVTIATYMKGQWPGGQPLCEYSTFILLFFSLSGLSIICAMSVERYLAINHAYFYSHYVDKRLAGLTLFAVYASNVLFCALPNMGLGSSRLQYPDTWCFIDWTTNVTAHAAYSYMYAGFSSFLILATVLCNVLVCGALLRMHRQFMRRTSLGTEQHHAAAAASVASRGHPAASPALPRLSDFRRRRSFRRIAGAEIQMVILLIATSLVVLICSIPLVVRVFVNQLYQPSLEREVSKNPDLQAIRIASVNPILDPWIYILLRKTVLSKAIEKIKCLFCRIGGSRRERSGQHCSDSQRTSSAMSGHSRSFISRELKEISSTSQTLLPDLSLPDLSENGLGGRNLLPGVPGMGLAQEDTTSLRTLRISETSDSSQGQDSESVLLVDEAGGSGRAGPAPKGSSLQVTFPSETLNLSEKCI
T2 sequence (P43116 whole entry): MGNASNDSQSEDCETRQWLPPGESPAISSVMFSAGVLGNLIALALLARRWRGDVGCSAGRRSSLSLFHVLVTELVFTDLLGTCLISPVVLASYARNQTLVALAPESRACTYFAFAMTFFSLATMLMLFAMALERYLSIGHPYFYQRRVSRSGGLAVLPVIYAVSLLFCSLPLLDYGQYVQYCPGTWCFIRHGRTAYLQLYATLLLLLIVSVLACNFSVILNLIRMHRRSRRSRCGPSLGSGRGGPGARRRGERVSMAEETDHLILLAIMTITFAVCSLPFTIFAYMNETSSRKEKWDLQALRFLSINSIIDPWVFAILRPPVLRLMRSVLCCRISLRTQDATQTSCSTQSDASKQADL

IC50 [1] [nM] | IC50 [2] [nM] | SMILES
≤ 100 | < 100 | O=C(O)c1ccc(CNC(=O)c2cc(-c3ccc(F)cc3)cc3cnn(Cc4ccc(-c5ccccc5)cc4)c23)cc1 [Example 191, 4-((1-([1,1′-biphenyl]-4-ylmethyl)-5-(4-fluorophenyl)-1H-indazole-7-carboxamido)methyl)benzoic acid]
≤ 100 | < 100 | O=C(NC[C@H]1CC[C@H](C(=O)O)CC1)c1cc(-c2ccccc2)cc2cnn(Cc3cccc(C(F)(F)F)c3)c12 [Example 221, (1r,4r)-4-((5-phenyl-1-(3-(trifluoromethyl)benzyl)-1H-indazole-7-carboxamido)methyl)cyclohexane-1-carboxylic acid]
≤ 100 | ≥ 1000 | C[C@H](NC(=O)c1cc(-c2ccccc2)cc2cnn(Cc3cccc(C(F)(F)F)c3)c12)[C@H]1CC[C@H](C(=O)O)CC1 [Example 223, (1S,4r)-4-((S)-1-(5-phenyl-1-(3-(trifluoromethyl)benzyl)-1H-indazole-7-carboxamido)ethyl)cyclohexane-1-carboxylic acid]
≤ 100 | < 100 | C[C@@H](NC(=O)c1cc(-c2ccccc2)cc2cnn(Cc3cccc(C(F)(F)F)c3)c12)[C@H]1CC[C@H](C(=O)O)CC1 [Example 224, (1R,4r)-4-((R)-1-(5-phenyl-1-(3-(trifluoromethyl)benzyl)-1H-indazole-7-carboxamido)ethyl)cyclohexane-1-carboxylic acid]

— patent US20250179017A1 (GUANGDONG NEWOPP BIOPHARMACEUTICALS CO., LTD., priority 2022, published 2025)
